Laboratory results published in article PMC6151865, “Targeting protein biotinylation enhances tuberculosis chemotherapy” (Science Translational Medicine, 2018).
Entries after “also recorded” stand apart in the source; their conditions may differ.

How the values were obtained:
[1] = tested on: Mtb carrying an Rv3406 overexpression plasmid (pGMEH-Ptb38-rv3406); format: cell-based, Mycobacterium tuberculosis
[2] = tested on: Mtb mutant bioA TetON-1 strain; format: cell-based, Mycobacterium tuberculosis

SMILES | resistance relative to wild-type Mtb [1] [fold] | sensitivity of bioA TetON-1 compared to wild-type Mtb [2]
Nc1ncnc2c1ncn2[C@@H]1O[C@H](CNS(=O)(=O)NC(=O)CCCC[C@@H]2SC[C@@H]3NC(=O)N[C@@H]32)[C@@H](O)[C@H]1O [Bio-AMS, 5′-[N-(d-biotinoyl)sulfamoyl]amino-5′-deoxyadenosine] | 64 | 
CO[C@H]1/C=C/O[C@@]2(C)Oc3c(C)c(O)c4c(O)c(c(/C=N/N5CCN(C)CC5)c(O)c4c3C2=O)NC(=O)/C(C)=C\C=C\[C@H](C)[C@H](O)[C@@H](C)[C@@H](O)[C@@H](C)[C@H](OC(C)=O)[C@@H]1C [rifampicin] |  | more sensitive than wild-type Mtb; also recorded: more resistant than wild-type Mtb
